Measured values taken from ChEMBL document CHEMBL4359885, “Novel multi target-directed ligands targeting 5-HT4 receptors with in cellulo antioxidant properties as promising leads in Alzheimer's disease” (Eur J Med Chem, 2019).
Activity calls are given as the source filed them. The calls are words filed in the database; no cut-off is given here.

Experiments:
[1] = Antioxidant activity assessed as […] radical scavenging activity preincubated for 30 mins followed by AAPH addition and measured every minute for 2 hrs by ORAC fluorescein assay relative to trolox; type: functional
[2] = Antioxidant activity assessed as DPPH radical scavenging activity measured after 120 mins; type: functional
[3] = target: T1, 5-hydroxytryptamine receptor 4 (Homo sapiens, UniProt Q13639); assay: Displacement of [3H]-GR 113808 from recombinant human brain 5HT4 receptor at 10^-8 M measured after 60 mins by radio ligand binding assay relative to control
[4] = target: T1, 5-hydroxytryptamine receptor 4; assay: Displacement of [3H]-GR 113808 from recombinant human brain 5HT4 receptor at 10^-6 M measured after 60 mins by radio ligand binding assay relative to control
[5] = target: T1, 5-hydroxytryptamine receptor 4; assay: Agonist activity at human HA-tagged 5HT4 receptor expressed in COS7 cells assessed as induction of cAMP production measured after 10 mins by HTRF assay relative to control; type: functional, cell-based
SH-SY5Y [6] = assay: Antioxidant activity in human SH-SY5Y cells assessed as inhibition of t-BuOOH-induced intracellular oxidative stress by measuring ROS level at 10 uM preincubated for 24 hrs followed by t-BuOOH addition and measured after 30 mins by DCFH-DA dye-based fluorescence assay relative to control; type: functional
[7] = target: T1, 5-hydroxytryptamine receptor 4; assay: Partial agonist activity at human HA-tagged 5HT4 receptor expressed in COS7 cells assessed as induction of cAMP production measured after 10 mins by HTRF assay; type: functional, cell-based
Acetylcholinesterase = Acetylcholinesterase (Homo sapiens, UniProt P22303); assay: Inhibition of human erythrocytes AChE assessed as reduction in 5-thio-2-nitrobenzoate anion formation using acetylthiocholine iodide as substrate preincubated for 5 mins followed by substrate addition by Ellman's method
[8] = target: T1, 5-hydroxytryptamine receptor 4; assay: Binding affinity to recombinant human brain 5HT4 receptor by radio ligand binding assay
SH-SY5Y [9] = assay: Cytotoxicity against human SH-SY5Y cells assessed as reduction in cell viability at 50 uM measured after 24 hrs by MTT assay relative to control; type: cell-based
SH-SY5Y [10] = assay: Cytotoxicity against human SH-SY5Y cells assessed as reduction in cell viability at 0.5 to 10 uM measured after 24 hrs by MTT assay; type: cell-based
[11] = target: T1, 5-hydroxytryptamine receptor 4; assay: Displacement of [3H]-GR 113808 from recombinant human brain 5HT4 receptor measured after 60 mins by radio ligand binding assay
SH-SY5Y [12] = assay: Antioxidant activity in human SH-SY5Y cells assessed as inhibition of t-BuOOH-induced intracellular oxidative stress by measuring ROS level at 100 uM preincubated for 24 hrs followed by t-BuOOH addition and measured after 30 mins by DCFH-DA dye-based fluorescence assay; type: functional, cell-based
SH-SY5Y [13] = assay: Cytotoxicity against human SH-SY5Y cells assessed as reduction in cell viability at 0.5 to 10 uM after 24 hrs by MTT assay relative to control; type: cell-based

T1 sequence (Q13639 whole entry): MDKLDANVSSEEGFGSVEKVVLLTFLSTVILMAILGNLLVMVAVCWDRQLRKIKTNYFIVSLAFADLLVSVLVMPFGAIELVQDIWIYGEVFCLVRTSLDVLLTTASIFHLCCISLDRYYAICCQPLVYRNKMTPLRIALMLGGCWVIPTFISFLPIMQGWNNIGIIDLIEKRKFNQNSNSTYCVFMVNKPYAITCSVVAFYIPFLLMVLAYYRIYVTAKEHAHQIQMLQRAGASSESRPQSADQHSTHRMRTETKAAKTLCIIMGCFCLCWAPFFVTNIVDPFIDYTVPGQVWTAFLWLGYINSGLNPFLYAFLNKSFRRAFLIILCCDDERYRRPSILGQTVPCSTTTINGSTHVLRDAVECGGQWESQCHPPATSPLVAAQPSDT
Chain of Acetylcholinesterase (P22303 whole entry): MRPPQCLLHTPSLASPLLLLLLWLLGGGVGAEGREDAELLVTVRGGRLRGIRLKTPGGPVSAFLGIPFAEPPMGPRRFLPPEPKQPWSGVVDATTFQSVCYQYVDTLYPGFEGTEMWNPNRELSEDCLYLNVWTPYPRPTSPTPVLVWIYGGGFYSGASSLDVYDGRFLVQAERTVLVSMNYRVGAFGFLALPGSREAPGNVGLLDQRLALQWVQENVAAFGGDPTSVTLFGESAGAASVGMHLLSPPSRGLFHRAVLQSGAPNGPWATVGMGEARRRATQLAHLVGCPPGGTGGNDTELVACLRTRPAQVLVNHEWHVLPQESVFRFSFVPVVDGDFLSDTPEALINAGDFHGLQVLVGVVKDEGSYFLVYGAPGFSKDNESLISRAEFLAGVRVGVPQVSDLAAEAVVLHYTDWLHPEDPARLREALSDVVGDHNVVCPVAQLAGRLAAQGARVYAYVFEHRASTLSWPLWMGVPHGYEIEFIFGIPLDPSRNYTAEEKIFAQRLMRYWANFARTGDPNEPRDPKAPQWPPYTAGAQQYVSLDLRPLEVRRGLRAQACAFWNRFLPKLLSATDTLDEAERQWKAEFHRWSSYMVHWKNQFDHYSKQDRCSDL

| SMILES | fold change (FC) [1] | EC50 [2] [nM] | inhibition [3] [%] | inhibition [4] [%] | Emax [5] [%] | inhibition at 10 µM (SH-SY5Y [6]) [%] | EC50 [7] [nM] | IC50 (Acetylcholinesterase) [nM] | Ki [8] [nM] | Activity (SH-SY5Y [9]) [%] | Activity (SH-SY5Y [10]) | IC50 [11] [nM] | inhibition (SH-SY5Y [12]) | inhibition (SH-SY5Y [6]) | Activity (SH-SY5Y [13]) [%] |
| --- | --- | --- | --- | --- | --- | --- | --- | --- | --- | --- | --- | --- | --- | --- | --- |
| COc1cc(N)c(Cl)cc1C(=O)CCC1CCN(Cc2ccc3c(c2)OCO3)CC1 | < 0.2 | > 250000 | 22 | 100 | – | – | – | – | – | – | – | – | – | – | – |
| COc1cc(N)c(Cl)cc1C(=O)CCC1CCN(Cc2ccc(O)c(O)c2)CC1 | 3.4 | 19600 | 76 | 100 | 72 | 50 | 2.8 | 138 | 5.9 | 37 | Non-Toxic | 7.5 | – | – | – |
| NCCc1c[nH]c2ccc(O)cc12 | – | – | 0 | 65 | – | – | – | – | – | – | – | – | – | – | – |
| COc1cc(CN2CCC(CCC(=O)c3cc(Cl)c(N)cc3OC)CC2)ccc1O | 3.88 | 180000 | 7 | 95 | – | – | – | 535 | – | – | – | – | – | – | – |
| Cc1c(C)c2c(c(C)c1O)CCC(C)(C(=O)O)O2 (stereo not drawn) [TROLOX] | – | 22900 | – | – | – | – | – | – | – | – | – | – | Active | – | – |
| COc1ccc(CN2CCC(CCC(=O)c3cc(Cl)c(N)cc3OC)CC2)cc1OCc1ccccc1 | < 0.2 | > 250000 | 7 | 88 | – | – | – | – | – | – | – | – | – | – | – |
| COc1cc(N)c(Cl)cc1C(=O)CCC1CCN(Cc2ccc(OCc3ccccc3)c(OCc3ccccc3)c2)CC1 | < 0.2 | > 250000 | 3 | 89 | – | – | – | – | – | – | – | – | – | – | – |
| COc1cc(CN2CCC(CCC(=O)c3cc(Cl)c(N)cc3OC)CC2)ccc1OCc1ccccc1 | < 0.2 | > 250000 | 0 | 97 | – | – | – | – | – | – | – | – | – | – | – |
| COc1ccc(CN2CCC(CCC(=O)c3cc(Cl)c(N)cc3OC)CC2)cc1O | 3.41 | 85500 | 64 | 100 | 57 | 50 | 1.4 | – | 12.7 | 40 | Non-Toxic | 14.5 | – | – | – |
| COc1cc(N)c(Cl)cc1C(=O)CCC1CCN(CCNC(=O)CCCC[C@@H]2CCSS2)CC1 | 0.76 | > 250000 | 26 | 99 | – | – | – | – | – | 48 | Non-Toxic | – | – | inactive | – |
| COc1cc(/C=C/C(=O)NCCN2CCC(CCC(=O)c3cc(Cl)c(N)cc3OC)CC2)ccc1O | 1.47 | 45500 | 39 | 100 | 47 | 50 | 4.5 | – | 101 | 68 | – | 101 | – | – | 12 |
| O=c1c(O)c(-c2ccc(O)c(O)c2)oc2cc(O)cc(O)c12 [QUERCETIN] | 6.5 | 9300 | – | – | – | – | – | – | – | – | – | – | – | – | – |
